# Data published in publication PMC7956560, “New 3-Aryl-2-(2-thienyl)acrylonitriles with High Activity Against Hepatoma Cells” (International Journal of Molecular Sciences, 2021).
# Key:
# [1] = system: HepG2 cells; assay: Colony-formation assay; format: cell-based, human; details: 1, 5, 10 µM, 14 days
# Protocol: HepG2 cells were seeded in 6-well plates at a density of 300 cells/well and allowed to attach overnight. […] Then, the plates were washed twice with PBS, fixed with 4% formaldehyde for 1 h, and stained with 0.5% crystal violet for 3 min. Excessive crystal violet was washed out and the colonies were counted under the microscope. A colony was defined as a cell aggregate with 50 or more cells. Representative images were taken with a kappa digital camera system (Kappa Optronics GmbH, Germany). A total of n = 3 experiments were performed, and significance was tested by one-way ANOVA assays.
# [2] = system: non-malignant murine AML-12 hepatocytes; assay: Growth inhibition, crystal violet staining, AML-12; format: cell-based; details: for IC50 against AML-12 hepatocytes relative to hepatoma cells: AML-12 vs hepatoma cells (HepG2, Huh-7), 48 h; for IC50: Mus musculus, AML12, 48 h incubation, mean ± SD, read-out: Anti-proliferative activity IC50, AML-12
# Protocol: (§1) The well-differentiated p53 wild-type human hepatoblastoma cell line HepG2 (ATCC# 8065) and the highly differentiated p53 mutated human hepatocellular carcinoma cell line Huh-7 (JCRB#0403) were grown in RPMI 1640 medium supplemented with 10% fetal bovine serum and 100 U/mL penicillin and […] streptomycin. Murine AML-12 hepatocytes were obtained from ATCC (CRL-2254) and grown in DMEM/F-12 Glutamax medium supplemented with 10% fetal bovine serum, 10 µg/mL insulin, 5.5 µg/mL transferrin, 5 ng/mL selenium (Gibco ITS-G 100X) and 40 ng/mL dexamethasone (Sigma-Aldrich). All cell lines were incubated in a 37 °C, 5% CO2, 95% humidified atmosphere.
# (§2) Treatment-induced changes in cell number were evaluated by crystal violet staining, as previously described. Briefly, 1.500 cells per well were seeded in 96-well plates for 24 h at 37 °C, 5% CO2. For the experiments with HepG2 and Huh-7 cell lines, cells were incubated with rising concentrations (0–20 µM) of the new compounds (1a–1o) for 48 h. AML12-cells were treated with compounds 1a, 1b, 1c, 1e, 1i and 1j for 48 h and at concentrations ranging from 0.5–64 µM. Thereafter, the cells were fixed with 1% glutaraldehyde and stained with 0.1% crystal violet (Sigma-Aldrich). The unbound dye was removed by rinsing with water. Bound crystal violet was solubilized with 0.2% Triton X-100 (Sigma-Aldrich). Light extinction of crystal violet, which increases linearly with cell number, was analyzed at 570 nm using an ELISA-Reader (Dynex Technologies, Denkendorf, Germany). All experiments were carried out in duplicate or triplicate.
# [3] = system: human Huh-7 HCC cells; assay: Growth inhibition, crystal violet staining, Huh-7; format: cell-based; details: 48 h incubation, mean ± SD, read-out: Anti-proliferative activity IC50, Huh-7
# Protocol: as §1, §2
# [4] = system: caspase-3 activity of HepG2 cells; assay: Apoptosis-specific caspase-3 activity; format: cell-based, human; details: 24 h; for caspase-3 activity (in words): HepG2, 1 and 10 µM
# Protocol: Changes in caspase-3 activity were measured by the cleavage of the fluorogenic substrate AC-DEVD-AMC (EMD Millipore, Billerica, MA, USA), as described previously. After 24 h of incubation with 1a, 1b, 1c, 1e and sorafenib (1 and 10 µM) the cells were harvested and lysed with lysis buffer. Subsequently, the lysates were incubated for 1 h at 37 °C with a substrate solution containing 20 μg/mL AC-DEVD-AMC, 20 mM HEPES, 10% glycerol and 2 mM DTT at pH 7.5. Substrate cleavage was measured fluorometrically using a Varioskan Flash Fluorometer (Thermo Fisher Scientific, Waltham, MA, USA; filter sets: ex 360/40 nm, em 460/10 nm). n = 3 independent measurements were performed in triplicate, and data are given as the mean percentage increase ± SD above control, which was set 100%.
# [5] = system: human HepG2 hepatoblastoma cells; assay: Growth inhibition, crystal violet staining, HepG2; format: cell-based; details: 48 h incubation, mean ± SD, read-out: Anti-proliferative activity IC50, HepG2
# Protocol: as §1, §2
# [6] = system: Pim-1; details: cited from earlier work
# [7] = system: HepG2-tumors grown on membranes of fertilized chicken eggs; assay: Chorioallantoic membrane (CAM) assay; format: in vivo; details: for tumor reduction vs PBS-treated controls (in words): topical treatment 72 h, 1b 0–10 µM, 1c 0–2.5 µM, sorafenib 10 µM
# Protocol: The chorioallantoic membrane (CAM) assay was performed as described previously. Fertilized chicken eggs (Gallus gallus) were obtained from commercial sources (Valo GmbH, Germany) and incubated in a humid environment at 38 °C. On day 3 of the egg development, a window was cut in the eggshell to access the developing vascular network of the CAM. At day 10 of chicken embryo development, a sterile silicon ring (10 mm diameter) was placed on the CAM and tumor plugs of 3 × 10^6 HepG2 cells in 20 µL Matrigel (BD Biosciences) with reduced growth factors were placed inside the silicon ring. After 24 h at 38 °C in an incubator, the tumor plaques attached and connected to the (tumor-)feeding CAM microvasculature. Then, the tumor plaques were topically treated with either PBS (negative control) or PBS containing rising concentrations of 1b (0–10 µM), 1c (0–2.5 µM) or sorafenib (10 μM) for 3 days. Tumor growth and viability of the embryo were controlled daily by stereo microscopy. After 72 h of treatment, the tumors were recovered for weighing and pictures were taken using a stereomicroscope equipped with a Kappa digital camera system (Kappa Optronics GmbH, Germany). For data analysis, the tumor weight of 1c-treated and untreated control tumors was determined and the mean weight of treated vs. untreated tumors of 11 eggs for each condition was calculated. Statistical significance evaluated by one-way ANOVA tests.
# [8] = system: HepG2 cells; assay: LDH release assay (unspecific cytotoxicity); format: cell-based, human; details: HepG2, 0.5 and 10 µM, 12 or 24 h
# Protocol: Unspecific cytotoxicity induced by treatment with 0.5 µM and 10 µM of 1a, 1b, 1c and sorafenib (LC Laboratories, Woburn, MA, USA) was determined by measuring the release of lactate dehydrogenase (LDH) from HepG2 cells into the supernatant after 12 and 24 h (Cytotoxicity Detection KitPLUS LDH, Roche Diagnostics GmbH, Mannheim, Germany). The supernatant of treated samples was collected, and adherent non-treated cells were lysed with 2% Triton X-100 for 10 min to determine the maximum LDH release. All samples were mixed with catalyst and dye solution for 30 min, resulting in the formation of formazan dye proportional to LDH enzyme activity. The absorbance was measured at 490/630 nm using an ELISA reader (Dynex Technologies, Denkendorf, Germany) and cytotoxicity was determined by subtracting the percentage of LDH release under control conditions of those from treated samples. Experiments were performed in duplicate and data are given as mean percentage changes ± SD as compared to controls of n = 3 experiments.
# [9] = biological target: T1, VEGFR-2 (KDR) (Homo sapiens, UniProt P35968); assay: Enzymatic kinase assay (Eurofins KinaseProfiler); format: biochemical; details: 10 µM compound, cell-free
# T1 construct: purchased Eurofins KinaseProfiler service (Eurofins, France)
# T1 sequence (P35968 20-1356): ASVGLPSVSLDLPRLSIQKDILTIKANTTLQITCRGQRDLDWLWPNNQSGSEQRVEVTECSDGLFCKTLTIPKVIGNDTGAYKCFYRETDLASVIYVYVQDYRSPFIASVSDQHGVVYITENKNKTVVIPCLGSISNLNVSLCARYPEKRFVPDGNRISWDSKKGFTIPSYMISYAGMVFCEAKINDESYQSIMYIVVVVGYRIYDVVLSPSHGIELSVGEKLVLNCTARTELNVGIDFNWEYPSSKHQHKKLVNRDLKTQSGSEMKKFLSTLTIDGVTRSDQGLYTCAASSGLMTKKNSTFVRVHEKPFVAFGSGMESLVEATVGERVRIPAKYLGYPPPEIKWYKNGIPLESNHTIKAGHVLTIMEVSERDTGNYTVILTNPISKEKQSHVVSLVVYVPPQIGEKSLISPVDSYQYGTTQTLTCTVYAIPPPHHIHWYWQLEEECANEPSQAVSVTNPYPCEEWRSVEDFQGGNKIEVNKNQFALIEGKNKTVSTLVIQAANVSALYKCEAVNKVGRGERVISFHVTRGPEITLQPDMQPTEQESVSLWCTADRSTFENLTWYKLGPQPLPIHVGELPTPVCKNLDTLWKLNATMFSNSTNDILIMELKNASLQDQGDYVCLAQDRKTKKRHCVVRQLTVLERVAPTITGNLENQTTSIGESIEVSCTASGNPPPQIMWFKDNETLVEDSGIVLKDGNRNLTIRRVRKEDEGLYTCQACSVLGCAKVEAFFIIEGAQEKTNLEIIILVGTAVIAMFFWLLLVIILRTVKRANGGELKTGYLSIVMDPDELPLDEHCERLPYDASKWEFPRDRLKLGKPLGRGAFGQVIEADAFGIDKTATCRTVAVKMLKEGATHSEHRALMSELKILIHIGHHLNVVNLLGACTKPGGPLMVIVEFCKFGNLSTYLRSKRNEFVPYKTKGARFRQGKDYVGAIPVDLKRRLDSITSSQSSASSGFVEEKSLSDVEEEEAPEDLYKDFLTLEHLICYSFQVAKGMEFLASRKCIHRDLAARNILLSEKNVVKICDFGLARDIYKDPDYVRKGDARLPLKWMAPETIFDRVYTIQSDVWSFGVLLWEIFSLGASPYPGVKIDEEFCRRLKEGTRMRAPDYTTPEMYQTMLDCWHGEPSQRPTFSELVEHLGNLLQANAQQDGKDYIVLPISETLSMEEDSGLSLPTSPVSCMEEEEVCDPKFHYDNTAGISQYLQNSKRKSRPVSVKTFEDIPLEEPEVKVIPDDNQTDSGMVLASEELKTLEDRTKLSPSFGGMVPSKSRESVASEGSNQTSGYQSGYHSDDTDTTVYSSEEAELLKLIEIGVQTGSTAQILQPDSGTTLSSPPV
# Protocol: (§3) The kinase inhibiting potency of compound 1a, 1b and 1c (10 µM) was screened in a cell-free kinase assay, which consisted of a custom panel of 43 human protein kinases for 1c (listed in Figure 5A), as well as a subpanel of six kinases for 1a and 1b (Figure 5B). The initial panel was chosen to screen the lead compound 1c based on the union of two strategies. A total of 29 kinases were selected based on the correlated results of three in silico target prediction methods including structure- as well as ligand-based techniques and 20 kinases because of their relevance for HCC (note that six kinases were part of both strategies).
# (§4) The assay was performed by Eurofins KinaseProfilerTM service (Eurofins, France) and the determination of enzymatic activity was assessed as previously described. Additionally, an IC50 determination of compound 1c against the VEGFR-2 was performed with a concentration range of 0.003 to 30 µM.
# [10] = biological target: T2, CLK1 (Homo sapiens, UniProt P49759); assay: Enzymatic kinase assay (Eurofins KinaseProfiler); format: biochemical; details: 10 µM compound, cell-free
# T2 construct: purchased Eurofins KinaseProfiler service (Eurofins, France)
# T2 sequence (P49759 whole entry): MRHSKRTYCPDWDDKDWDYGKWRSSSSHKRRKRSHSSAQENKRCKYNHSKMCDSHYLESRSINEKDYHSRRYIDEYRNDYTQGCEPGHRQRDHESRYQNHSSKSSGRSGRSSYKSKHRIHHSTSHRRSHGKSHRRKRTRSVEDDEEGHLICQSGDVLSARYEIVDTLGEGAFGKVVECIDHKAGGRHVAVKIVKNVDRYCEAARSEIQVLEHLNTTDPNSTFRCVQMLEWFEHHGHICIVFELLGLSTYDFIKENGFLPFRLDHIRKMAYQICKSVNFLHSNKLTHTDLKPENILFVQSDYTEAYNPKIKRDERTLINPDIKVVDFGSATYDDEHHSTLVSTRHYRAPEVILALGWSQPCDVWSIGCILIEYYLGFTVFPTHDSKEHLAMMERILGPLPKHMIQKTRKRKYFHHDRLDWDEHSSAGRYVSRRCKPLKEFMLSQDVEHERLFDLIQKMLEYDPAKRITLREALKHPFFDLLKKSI
# Protocol: as §3, §4
Compound,IC50 [3] [µM],IC50 [5] [µM],IC50 [2] [µM],also measured
"COc1ccc(/C=C(\C#N)c2cccs2)cc1Br [Compound 1l, 2-[1-Cyano-2-(3-bromo-4-methoxyphenyl)-(E)-ethenyl]-thiophene]",,13.9 ± 1.16,,
COc1cc(/C=C(\C#N)c2cccs2)ccc1O [Compound 1d],> 20,> 20,,
"Cn1ccc2cc(/C=C(\C#N)c3cccs3)ccc21 [Compound 1o, 2-{1-Cyano-2-[N-methylindol-5-yl]-(E)-ethenyl}-thiophene]",> 20,> 20,,
"CNC(=O)c1cc(Oc2ccc(NC(=O)Nc3ccc(Cl)c(C(F)(F)F)c3)cc2)ccn1 [Sorafenib, sorafenib, reference compound]",2.5 ± 0.14,2.73 ± 0.76,,Pim-1 inhibitory activity (in words) [6]: no Pim-1 inhibitory activity; caspase-3 activity (in words) [4]: dose-dependently induced caspase-3 activity; tumor reduction vs PBS-treated controls (in words) [7]: pronounced tumor reductions; LDH release / unspecific cytotoxicity (in words) [8]: do not exert considerable unspecific cytotoxicity
CN(C)c1ccc(C=C(C#N)c2cccs2)cc1 [Compound 1b],0.67 ± 0.13,0.72 ± 0.09,2.72 ± 0.78,"effect on HepG2 colony formation (in words) [1]: significantly inhibited HepG2 colony formation; IC50 against AML-12 hepatocytes relative to hepatoma cells [2]: up to 10 fold; inhibition at 10 µM [9]: 86%; caspase-3 activity compared with the other compounds (in words) ([4]; HepG2, 10 µM): comparably stronger increase in caspase-3 activity than the other compounds; caspase-3 activity (in words) [4]: dose-dependently induced caspase-3 activity; tumor reduction vs PBS-treated controls (in words) [7]: pronounced tumor reductions; tolerability, mortality and development of chicken embryos ([7]; treated vs untreated eggs): well tolerated; LDH release / unspecific cytotoxicity (in words) [8]: do not exert considerable unspecific cytotoxicity"
"COc1ccc(C=C(C#N)c2cccnc2)cc1O [Compound 2, reference compound]",,6.26 ± 1.18,,
COc1ccc(C=C(C#N)c2cccs2)cc1 [Compound 1a],1.2 ± 0.42,1.46 ± 0.21,6.79 ± 0.32,effect on HepG2 colony formation (in words) [1]: significantly inhibited HepG2 colony formation; IC50 against AML-12 hepatocytes relative to hepatoma cells [2]: up to 10 fold; inhibition at 10 µM [10]: 68%; inhibition of VEGFR-2 (KDR) [9]: lacks any activity; caspase-3 activity (in words) [4]: dose-dependently induced caspase-3 activity; LDH release / unspecific cytotoxicity (in words) [8]: do not exert considerable unspecific cytotoxicity

# Now from value to compound, other results behind:
IC50 [3] [µM],IC50 [5] [µM],Compound,IC50 [2] [µM],also measured
1.85 ± 0.21,1.3 ± 0.17,"COc1ccc(C=C(C#N)c2cccs2)cc1C [Compound 1e, 2-[1-Cyano-2-(3-methyl-4-methoxyphenyl)-(E)-ethenyl)]-thiophene]",14.8 ± 2.39,effect on HepG2 colony formation (in words) [1]: significantly inhibited HepG2 colony formation; IC50 against AML-12 hepatocytes relative to hepatoma cells [2]: up to 10 fold; caspase-3 activity (in words) [4]: dose-dependently induced caspase-3 activity
> 20,> 20,"COCCOc1cc(/C=C(\C#N)c2cccs2)ccc1OC [Compound 1g, 2-[1-Cyano-2-[4-Methoxy-3-(2-methoxyethoxy)phenyl]-(E)-ethenyl}-thiophene]",,
> 20,> 20,"COc1ccc(/C=C(\C#N)c2cccs2)cc1OCCCN1CCOCC1 [Compound 1n, 2-{1-Cyano-2-[4-methoxy-3-(3-morpholinopropoxy)phenyl]-(E)-ethenyl}-thiophene]",,
11.8 ± 0.56,9.3 ± 0.82,"CN1CCN(c2ccc(/C=C(\C#N)c3cccs3)cc2)CC1 [Compound 1i, 2-[1-Cyano-2-(4-N-methylpiperazin-1-ylphenyl)-(E)-ethenyl]-thiophene]",20.5 ± 1.25,
> 20,> 20,COc1cc(/C=C(\C#N)c2cccs2)ccc1-c1ccccc1Cl [Compound 1f],,
> 20,> 20,"COCCOc1ccc(/C=C(\C#N)c2cccs2)cc1F [Compound 1k, 2-{1-Cyano-2-[3-fluoro-4-(2-methoxyethoxy)phenyl]-(E)-ethenyl}-thiophene]",,
5.7 ± 1.2,4.9 ± 1.54,"COc1ccc(/C=C(\C#N)c2cccs2)cc1F [Compound 1j, 2-[1-Cyano-2-(3-fluoro-4-methoxyphenyl)-(E)-ethenyl]-thiophene]",9.42 ± 0.91,
> 20,> 20,"COCCOc1ccc(/C=C(\C#N)c2cccs2)cc1OCCOC [Compound 1h, 2-{1-Cyano-2-[3,4-bis(2-methoxyethoxy)phenyl]-(E)-ethenyl}-thiophene]",,
> 20,> 20,"N#C/C(=C\c1cccc(O)c1)c1cccs1 [Compound 1m, 2-[1-Cyano-2-(3-hydroxyphenyl)-(E)-ethenyl]-thiophene]",,
